Measured values as given in article PMC3921447, “Homologous and heterologous desensitization of guanylyl cyclase-B signaling in GH3 somatolactotropes” (Cell and Tissue Research, 2013).

What was measured:
GC-A and GC-B receptors = conditions: prolonged exposure; ref Fan et al. [2005]; Dickey et al. [2011]; cited from earlier work
Text: Pharmacological regulation of the GC-B receptor has been elegantly described through many studies by Potter and Hunter ([1998a], [1999]) who have shown that dephosphorylation of specific serine and threonine residues of the GC-B receptor leads to rapid homologous desensitization. In keeping with the extensive literature describing the regulation of GC-A receptors (Potter et al. [2006]), enhancement of protein kinase C (PKC) activity leads to heterologous desensitization (Potter and Hunter [2000]).

GC-B = target: T1, GC-B (Rattus norvegicus, UniProt P16067); assay: GC-B protein expression by Western blot in GH3 cells; assay type: cell-based; conditions: 100 nM CNP, up to 24 h; n = 3; Fig. 4b
T1 construct: rapid homologous desensitization of endogenous GC-B receptors in GH3 cells; endogenous in cells; host or cells: GH3 rat somatolactotrope cells
T1 sequence (P16067 17-1047): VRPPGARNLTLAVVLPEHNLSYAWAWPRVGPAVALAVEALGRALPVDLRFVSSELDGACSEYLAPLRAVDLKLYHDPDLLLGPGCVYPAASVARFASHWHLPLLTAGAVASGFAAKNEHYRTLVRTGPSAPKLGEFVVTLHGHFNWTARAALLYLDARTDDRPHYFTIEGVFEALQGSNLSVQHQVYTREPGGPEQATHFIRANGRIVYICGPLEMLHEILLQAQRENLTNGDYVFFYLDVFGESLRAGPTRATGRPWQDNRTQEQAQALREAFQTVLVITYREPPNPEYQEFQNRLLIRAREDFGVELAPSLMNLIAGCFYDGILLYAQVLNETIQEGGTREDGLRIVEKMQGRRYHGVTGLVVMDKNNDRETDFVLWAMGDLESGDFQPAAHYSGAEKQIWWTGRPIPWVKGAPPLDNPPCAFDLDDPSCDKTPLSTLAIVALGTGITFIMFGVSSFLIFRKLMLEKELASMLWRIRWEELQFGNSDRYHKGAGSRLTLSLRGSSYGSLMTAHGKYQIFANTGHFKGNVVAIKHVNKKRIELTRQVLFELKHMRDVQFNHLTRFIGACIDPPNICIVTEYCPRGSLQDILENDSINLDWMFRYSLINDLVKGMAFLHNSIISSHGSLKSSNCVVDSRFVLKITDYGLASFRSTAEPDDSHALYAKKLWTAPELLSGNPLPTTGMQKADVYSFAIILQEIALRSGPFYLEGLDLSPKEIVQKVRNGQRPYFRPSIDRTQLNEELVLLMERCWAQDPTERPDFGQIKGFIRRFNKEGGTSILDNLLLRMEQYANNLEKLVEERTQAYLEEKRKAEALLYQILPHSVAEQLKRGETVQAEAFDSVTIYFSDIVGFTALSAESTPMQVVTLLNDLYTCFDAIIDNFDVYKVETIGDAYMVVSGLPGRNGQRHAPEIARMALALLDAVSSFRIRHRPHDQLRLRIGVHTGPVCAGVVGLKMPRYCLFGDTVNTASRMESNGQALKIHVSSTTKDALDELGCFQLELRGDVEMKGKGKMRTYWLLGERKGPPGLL
Procedure: GH3 cell lysates (from 1 × 10^6 cells) were prepared in lysis buffer (0.5 M TRIS pH 6.8, 10 % [v/v] glycerol, 1 % [w/v] SDS). Protein lysates were sonicated, boiled at 95 °C for 5 min, resolved by 10 % SDS-polyacrylamide gel electrophoresis, transferred to polyvivylidene difluoride membrane and probed for GC-B (1:2000 dilution) or β-actin (1:5000 dilution) expression. Appropriate horseradish-peroxidase-conjugated secondary antibodies were purchased from DAKO.
We next examined whether Npr2 or GC-B down-regulation (as determined by a reduction in Npr2 mRNA expression and or GC-B protein expression) mediated the inhibitory effects of sustained CNP exposure. The effect of CNP exposure on the expression of the endogenous Npr2 gene was examined by using qPCR. […] To establish whether down-regulation occurred at the protein level, total proteins were extracted from GH3 cells incubated for up to 24 h with 100 nM CNP.
Fig. 4 CNP fails to alter expression of Npr2 mRNA or GC-B protein in GH3 somatolactotrope cells. a GH3 cells were stimulated with 0 or 100 nM CNP for 24 h prior to extraction of total RNA, cDNA synthesis, and quantitative PCR for endogenous Npr2 expression. […] Blots were stripped and re-probed for β-actin. Panels are representative of three independent experiments (n = 3)

growth hormone secretion = conditions: ref Hartt et al. [1995]; Shimekake et al. [1994]; cited from earlier work
Text: Both humans and mice with mutations in the genes encoding either CNP or its receptor, GC-B, suffer from severe growth disorders (Chusho et al. [2001]) and, in some cases, growth hormone deficiency (Tamura et al. [2004]). Despite significant homology between the three natriuretic peptides and between their receptors, mutations in the genes encoding ANP, BNP, or GC-A fail to phenocopy CNP/GC-B-disrupted mice (Kishimoto et al. [2011]). Our recent observations of GC-B expression in normal fetal pituitary tissue and in a range of human pituitary adenomas (including those from acromegalics) strongly ...

- GC-B protein expression (GC-B): failed to alter expression levels
Compound: CC[C@H](C)[C@@H]1NC(=O)[C@H](CCCNC(=N)N)NC(=O)[C@H](CC(=O)O)NC(=O)[C@H](CC(C)C)NC(=O)[C@H](CCCCN)NC(=O)[C@H](CC(C)C)NC(=O)CNC(=O)[C@H](Cc2ccccc2)NC(=O)[C@@H](NC(=O)CNC(=O)[C@H](CCCCN)NC(=O)[C@H](CO)NC(=O)[C@H](CC(C)C)NC(=O)CN)CSSC[C@@H](C(=O)O)NC(=O)CNC(=O)[C@H](CC(C)C)NC(=O)CNC(=O)[C@H](CO)NC(=O)[C@H](CCSC)NC(=O)[C@H](CO)NC(=O)CNC1=O [CNP, C-type natriuretic peptide]
- agonist-induced internalization (GC-A and GC-B receptors): does not appear to cause agonist-induced internalization
- growth hormone secretion (growth hormone secretion): act as growth hormone secretogogs
